# Patent US20030134779A1, “Method and composition for treatment and/or prevention of antibiotic-resistant microorganism infections” (priority 2002, published 2003)
# Columns and labels:
# S. aureus SHY97-3906 = assay: Bacterial growth in MHB; format: cell-based, Staphylococcus aureus; details: combination of erythromycin and LF; 18-h of incubation
# Protocol: (§1) The effect of LF or LFC at concentration sub-MICs alone or in combination with sub-MICs of antibiotics on bacterial growth rate of S. aureus, E. coli and K. pneumoniae was determined by monitoring bacterial cultures in MHB with the O.D.600 nm or by the count of colony forming unit per ml (cfu/ml). A volume of 2.5 ml of overnight cultures in MHB adjusted to 0.5-1 McFarland standard in saline were used to inoculate a final volume of 25 ml of fresh MHB containing the desired concentration of tested compounds. All flasks were then incubated at 37° C. with agitation (200 rpm) for 9 h. Aliquots were removed every hour to determine the culture turbidity using the spectrophotometer Philips PU 8800 (Pye Unican Ltd, Cambridge, UK). The combined antibiotic effect on bacterial growth was also determined using concentrations of LF in the presence of different concentrations of antibiotics. Briefly, a volume of 3 ml of fresh MHB containing desired concentration of drugs was adjusted to an optical density of 0.4 at 540 nm after an overnight culture. The culture was then incubated at 37° C with agitation (200 rpm). After incubation, aliquots were removed to determine the culture turbidity (OD540nm) or cfu/ml. To determine the influence of the level of iron on of the growth inhibition by the test compound, 5 μM of FeCl3 were added to the media.
# E. coli SHY97-3923 = assay: Bacterial growth in MHB; format: cell-based, Escherichia coli
# Protocol: as §1
# S. aureus PC-1 [1] = assay: Bacterial growth in MHB; format: cell-based, Staphylococcus aureus; details: LF or LFC alone, sub-MIC
# Protocol: as §1
# S. aureus PC-1 [2] = assay: Cell morphology by transmission electron microscopy; format: cell-based, Staphylococcus aureus
# Protocol: Bacterial cells were grown overnight on MHA or MHB containing sub-MICs of penicillin G with or without LF or LFC. Microorganisms were prepared for transmission electron microscopy by fixation with glutaraldehyde followed by ferritin labelling. This method allows good- preservation of capsular material. Briefly, bacterial cells grown in the presence or absence of antibiotics were fixed in cacodylate buffer (0.1 M, pH 7.0) containing 5% (v/v) glutaraldehyde, for 2 h at 20° C. Fixed microorganims were suspended in cacodylate buffer and allowed to react with the polycationic ferritin (Sigma Chemicals, St-Louis, Mo.; final concentration 1.0 mg/ml) for 30 min at 20° C. The reaction was slowed down by 10-fold dilution with buffer, and the microorganisms were centrifuged and washed three times in cacodylate buffer. Bacterial cells were then immobilized in 4% (w/v) agar, washed 5 times in cacodylate buffer and post-fixed with 2% (w/v) osmium tetroxide for 2 h. Washings were repeated as above, and the samples dehydrated in a graded series of acetone washes. Samples were then washed twice in propylene oxide and embedded in Spurr low-viscosity resin. Thin sections were post-stained with uranyl acetate and lead citrate and examined with an electron microscope (Philips 201) at an accelerating voltage of 60 kV.
# Bacterial cells of PC-1 (a constitutively high producing β-lactamase strain) were grown overnight in MHB containing 8 μg/ml of penicillin G, 16 μg/ml of LFC alone or in combination for 4-h at 37° C. with agitation at 150 rpm. Bacteria cell morphology was evaluated by transmission electron microscopy after fixation and ferritin labelling method as previously described.
# [3] = tested on: β-lactamase activity of S. aureus PC-1; assay: β-lactamase activity, nitrocefin assay, bovine LF/LFC; format: cell-based; details: LF 1 mg/ml (P<0.05); LFC 32 or 64 μg/ml (P<0.001)
# Protocol: The effects of sub-MICs of LF (1 mg/ml), LFC (32 and 64 μg/ml) alone or in combination with ampicillin (4μg/ml) or penicillin G (8 μg/ml) were evaluated on the β-lactamase activity of S. aureus strains SHY97-4320 and PC-1. The chromogenic cephalosporin nitrocefin (Becton Dickinson, Microbiology, Cockeysville, Md.) was used in a quantitative spectrophotometric assay. Bacterial cells were first exposed during 4 and 22-h to drugs in broth. The number of bacteria (cfu/ml) were determined and cells aliquots were centrifuged at each point in time. The pellets were suspended in 10 mM HEPES buffer (pH 7.4) to an OD415 nm of 1 for PC-1 and 2 for SHY97-4320. Nitrocefin (100 μM) was added to 100 μl of cells in a final volume of 1 ml. Hydrolysis was measured at 486 nm on spectrophotometer. β-lactamase activity was expressed as ΔO.D.486 nm/min and corrected for bacterial OD.
# S. aureus strains = assay: Disk diffusion susceptibility test and cefinase test; format: cell-based, Staphylococcus aureus; details: β-lactamase producing strains
# Protocol: For quality control, disk diffusion susceptibility tests, as recommended by the National Committee for Clinical Laboratory Standard, were performed on all strains using standard disk of various antibiotics. After 18 h of incubation at 37° C., the diameter of the zone of complete inhibition of bacterial growth around each disk was measured. Isolates were categorized as sensitive or resistant for a given antibiotic using the recommended interpretative guidelines of the manufacturer.
# [4] = tested on: Escherichia coli strain harboring TEM-12 beta-lactamase; details: cited from earlier work
# [5] = tested on: Escherichia coli strain harboring wild TEM-1 beta-lactamase; details: cited from earlier work
# [6] = tested on: Escherichia coli strain harboring TEM-10 beta-lactamase; details: cited from earlier work
# K. pneumoniae SHY99-723 = assay: Bacterial growth in MHB; format: cell-based, Klebsiella pneumoniae
# Protocol: as §1
# [7] = tested on: S. typhimurium strain DT 104; details: isolates with decreased fluoroquinolone sensitivity; cited from earlier work
molecule,measurement,setting,value
CC[C@H]1OC(=O)[C@H](C)[C@@H](O[C@H]2C[C@@](C)(OC)[C@@H](O)[C@H](C)O2)[C@H](C)[C@@H](O[C@@H]2O[C@H](C)C[C@H](N(C)C)[C@H]2O)[C@](C)(O)C[C@@H](C)C(=O)[C@H](C)[C@@H](O)[C@]1(C)O [erythromycin],growth,S. aureus SHY97-3906,affected
Cc1nnc(SCC2=C(C(=O)O)N3C(=O)[C@@H](NC(=O)Cn4cnnn4)[C@H]3SC2)s1 [cefazolin],growth,E. coli SHY97-3923; cefazolin alone (0.5 g),not able to reduce growth
same,growth,E. coli SHY97-3923; cefazolin with LFC,completely inhibit bacterial growth
CC[C@H](C)[C@@H]1NC(=O)[C@H](CO)NC(=O)[C@@H]2CCCN2C(=O)[C@H](C)NC(=O)CNC(=O)[C@H](CC(C)C)NC(=O)[C@H](CCCCN)NC(=O)[C@H](CCCCN)NC(=O)[C@H](CCSC)NC(=O)[C@H](CCCNC(=N)N)NC(=O)[C@H](Cc2c[nH]c3ccccc23)NC(=O)[C@H](CCC(N)=O)NC(=O)[C@H](Cc2c[nH]c3ccccc23)NC(=O)[C@H](CCCNC(=N)N)NC(=O)[C@H](CCCNC(=N)N)NC(=O)[C@@H](NC(=O)[C@H](CCCCN)NC(=O)[C@@H](N)Cc2ccccc2)CSSC[C@@H](C(=O)N[C@H](C(=O)N[C@@H](CCCNC(=N)N)C(=O)N[C@@H](CCCNC(=N)N)C(=O)N[C@@H](C)C(=O)N[C@@H](Cc2ccccc2)C(=O)O)C(C)C)NC(=O)[C@H]([C@@H](C)O)NC1=O [LFC],growth,S. aureus PC-1 [1],delayed growth
same,mesosome structures arising from the septa and cell wall,S. aureus PC-1 [2]; LFC 16 μg/ml,induced formation of mesosome structures
same,bacterial lysis,"S. aureus PC-1 [2]; LFC 16 μg/ml alone, 4-h",A large percentage of lysed bacteria
same,bacterial lysis by LFC,S. aureus PC-1 [2]; LFC 16 μg/ml in the presence of penicillin G 8 μg/ml,enhanced
same,shape and size of cells,S. aureus PC-1 [2]; exposure to LF or LFC,affected the shape and the size
same,β-lactamase activity,[3],strong
CC1(C)S[C@@H]2[C@H](NC(=O)[C@H](N)c3ccccc3)C(=O)N2[C@H]1C(=O)O [ampicillin],susceptibility by standard disk diffusion and cefinase test,S. aureus strains,resistance
CO/N=C(\C(=O)N[C@@H]1C(=O)N2C(C(=O)O)=C(COC(C)=O)CS[C@H]12)c1csc(N)n1 [cefotaxime],conventional MIC of cefotaxime,[4],0.06 µg/mL
same,MIC of cefotaxime,[5],0.03 µg/mL
same,MIC of cefotaxime,[6],0.25 µg/mL
neomycin,effect of neomycin on bacterial growth,E. coli SHY97-3923; 16 μg/ml LFC (1/16 MIC) added,significantly enhanced
same,effect of neomycin on bacterial growth,E. coli SHY97-3923; 1 mg/ml of LF added,significantly enhanced
same,reduction of bacterial growth rate with neomycin,K. pneumoniae SHY99-723; 16 μg/ml LFC (1/16 MIC) added,2 times
same,reduction of bacterial growth rate with neomycin,K. pneumoniae SHY99-723; 0.5 mg/ml of LF added,2 times
O=C(O)c1cn(C2CC2)c2cc(N3CCNCC3)c(F)cc2c1=O [ciprofloxacin],MIC's of ciprofloxacin,[7],0.25 to 1.0 µg/mL
